In patent US7067489B2, “Hematopoietic stimulation” (Point Therapeutics, Inc., priority 1998, dated 2006):

Legend:
[1] = system: cyclophosphamide treated mice; test: Regeneration of neutrophils in cyclophosphamide-treated mice; format: in vivo; conditions: for neutrophil recovery versus saline treated mice: 5 days; for ANC after treatment was stopped: count on Day 13; for Day on which normal levels of absolute neutrophil counts (ANC) were reached: saline treated mice Day 7
Description: In these studies, mice were injected intraperitoneally with a sublethal dose of 220 mg/kg cyclophosphamide (Day 1). […] After 72 hours (Day 3) mice were divided into 3 groups. […] G-CSF was used at 0.04 ug/dose (4 μg/kg/day) which is the dose frequently used in published reports studying the G-CSF effects in mice and is also the equivalent dose used in cancer patients. All administrations were performed twice daily (b.i.d.) for 5 consecutive days or as indicated. Blood samples were taken from individual mice on Day 4–8, and in some experiments on Days 13 or 17. At each time pont four or five test animals were sampled. Total and differential white blood cell counts of Gimsa-stained blood smears were performed.

[2] = system: BALB/c mice; test: Stimulation of hematopoiesis in the spleen of normal mice (splenocyte colony assay); format: in vivo; conditions: twice daily for 5 days, subcutaneous injection or oral gavage
Description: On the sixth day the animals were sacrificed and their spleens were excised using sterile procedures. The spleens were disrupted to produce single cell suspensions which were subsequently treated with a solution of Tris ammonium chloride (pH 7.2) to lyse erythrocytes. The resulting splenocyte populations were in a hemocytometer and resuspended at […] in Iscove's Modified Eagles medium (IMDM) supplemented with 2% heat inactivated fetal calf serum. 0.3 mL of each splenocyte solution was added to 3 mL of Methocult™GF M3434 (Stem Cell Technologies, Vancouver, BC, Canada), a methylcellulose medium containing recombinant cytokines used for colony assays of murine progenitor cells. The medium was vigorously mixed and then 1.1 mL of the mixture was placed in duplicate onto sterile 35 mm diameter culture dishes, resulting in 5×10^5 splenocytes/plate. The plated cells were incubated at 37° C. under humidified conditions in 95% air/5% CO2 for 7 days. CFU-E were enumerated as per the manufacturers specifications after 2 days, while BFU-E, CFU-GM and CFU-GEMM were enumerated after 7 days. For each mouse, the absolute CFU/spleen were calculated using the total splenocyte count determined in the hemocytometer. The data shown in FIG. 9 represents the mean±SD CFU/spleen from 3 mice in each dosing group.

[3] = system: human bone marrow stromal cells; test: Production of G-CSF by human bone marrow stromal cells; format: cell-based; conditions: 10^−5 M PT-100, culture media collected on day 1
Description: Mononuclear cells were purified from bone marrow and cultured long-term culture medium, (Stem Cell Technologies, Inc., Vancouver, B.C.) for 2 weeks, with a single feeding of fresh medium after 1 week. […] Culture media were collected on day 1. Supernatants were assayed for human G-CSF using a Quantikine high sensitivity immuno-assay kit (R+D Systems, Minneapolis, Minn.).

[4] = system: human CD34+ cells (primitive hematopoietic progenitor cells) on stromal cell layer; test: Long-Term Culture (LTC) assay followed by semi-solid colony assay; format: cell-based
From the text: An assay to evaluate the effect of a compound or of growth factors on PHPCs was first described by Dexter (Dexter T. M. et al, J. Cell. Physiol. 91:335–344 (1977)), and combines the Long-Term Culture (LTC) with the semi-solid colony assay. LTC is initiated over a pre-formed stromal cell layer which provides the necessary hematopoietic growth factors. It has been used extensively for the in vitro examination of murine and human hematopoiesis and to evaluate the ability of test compounds to generate LTC-ICs.
For the LTC assays, CD34^+ cells were isolated by positive selection from human bone marrow cells, apheresed peripheral blood or umbilical cord blood using a MAC separation system. To establish a stromal feeder layer, human bone marrow cells were cultured in Myelocult long term culture medium for 2 weeks. […] Medium and PT-100 was exchanged every three days thereafter. At the end of the culture period the culture was assayed for progenitor cells by plating in semi-solid medium (methylcellulose) supplemented with growth factors (Stem Cell Factor, GM-CSF, IL-3 and Erythropoietin).
The total number of myeloid, erythroid, blast forming and multilineage clonogeneic progenitors (colonies CFU-GM, CFU-E, BFU-E and CFU-GEMM, respectively) were determined after 14 days in methylcellulose culture.

[5] = system: human bone marrow CD34+ cells (committed progenitor cells); test: 2 week semi-solid (methylcellulose) colony (CFU) assay; format: cell-based
From the text: Hematopoiesis is sustained by a pool of hematopoietic stem cells (HSCs) that can self-renew and differentiate into hematopoietic progenitor cells (HPCs). HPCs are committed to specific lineages which can be identified based on their colony morphology when grown in semi-solid media in vitro, typically over a 2 week period. The colonies grown in the semi-solid colony assay are functionally defined as colony- or burst-forming units and include BFU-E and CFU-E (cells committed to the erythroid lineage), CFU-GM (cells committed to the granulocytic/monocytic lineage), BFU-MK and CFU-MK (cells committed to the megakaryocyte lineage) and CFU-GEMM (multipotent progenitors).

[6] = system: human CD34+ cells (primitive hematopoietic progenitor cells) on stromal cell layer; conditions: cited from earlier work
[7] = system: human bone marrow CD34+ cells (committed progenitor cells); conditions: stated as previously shown; cited from earlier work

CC(C)[C@H](N)C(=O)N1CCC[C@H]1B(O)O [PT-100, valine-prolineboronic acid]
neutrophil recovery over saline ([1]; 0.1 μg/b.i.d. oral gavage, 5 consecutive days from Day 3): did not significantly enhance neutrophil recovery over saline | neutrophil recovery versus saline treated mice ([1]; 1 μg/b.i.d. s.c.): did not show much effect | ANC after treatment was stopped ([1]; 2 μg/b.i.d. by gavage for 5 days): decreased to normal counts by Day 13 | neutrophil regeneration during the treatment period, PT-100 versus G-CSF ([1]; 2 μg/b.i.d. by gavage, 5 consecutive days from Day 3): stimulated neutrophil regeneration to a similar level | Day on which normal levels of absolute neutrophil counts (ANC) were reached ([1]; 2 μg/b.i.d. oral gavage): 5 days | Day on which normal levels of absolute neutrophil counts (ANC) were reached ([1]; 5 μg/b.i.d. oral gavage): 5 days | neutrophil recovery versus saline treated mice ([1]; 5 μg/b.i.d. s.c.): accelerated | neutrophil recovery versus saline treated mice ([1]; 10 μg/b.i.d. s.c.): accelerated | neutrophil recovery versus saline treated mice ([1]; 20 μg/b.i.d. s.c.): accelerated | rate of neutrophil recovery with additional administration for 2 or 3 days ([1]; gavage b.i.d. for 2 or 3 days starting Day 3): increased the rate of recovery even further | reconstitution of neutrophils after one day of administration ([1]; gavage b.i.d. for 1 day starting Day 3 (5, 2 or 1 μg/b.i.d.)): accelerated reconstitution of neutrophils over saline treated animals | rate of neutrophil recovery or ANC with 4 or 5 days versus 3 day administration ([1]; gavage b.i.d., total of 4 or 5 days): does not significantly increase | effect of additional administration on Days 5, 6 and 7 on ANC ([1]; oral gavage b.i.d.): caused a further increase in ANC | neutrophil recovery, twice daily versus once per day administration ([1]; s.c., five day period from Day 3, both doses tested): faster rate of neutrophil recovery to higher neutrophil levels | hematopoiesis in spleen (CFU/spleen: CFU-E, BFU-E, CFU-GM, CFU-GEMM) [2]: stimulated hematopoiesis for all progenitor colony types tested | production of G-CSF by cultured stromal cells [3]: stimulates production of G-CSF | number of 4 and 5 week LTC-ICs ([4]; CD34+ cells from apheresed peripheral blood or umbilical cord blood, 30 days on irradiated stromal cells): increased | growth of very early progenitor cells in LTC assays ([4]; all three cell sources (bone marrow, apheresed peripheral blood, umbilical cord blood), LTC-ICs at 4, 5 and 6 weeks): significantly increased | number of clonogeneic progenitors able to form colonies in semi-solid medium ([4]; human bone marrow culture, 4 week LTC assay): increased, in a dose dependent manner | differentiation of committed progenitor cells (CFU-E, CFU-GM, CFU-GEMM, BFU-E colonies) ([5]; human bone marrow CD34+ cells, 4 h pre-incubation, 14 days in methylcellulose with sub-optimal growth factors): did not stimulate differentiation | generation of CFUs in the 2 week semi-solid assay ([5]; human bone marrow, apheresed peripheral blood or umbilical cord blood cells): did not stimulate the generation of CFUs

B1: G-CSF: granulocyte colony stimulating factor, currently used to accelerate neutrophil recovery in cancer patients undergoing chemotherapy (protein, UniProt P09919 31-207, looked up)
Granulocyte …: TPLGPASSLPQSFLLKCLEQVRKIQGDGAALQEKLVSECATYKLCHPEELVLLGHSLGIPWAPLSSCPSQALQLAGCLSQLHSGLFLYQGLLQALEGISPELGPTLDTLQLDVADFATTIWQQMEELGMAPALQPTQGAMPAFASAFQRRAGGVLVASHLQSFLEVSYRVLRHLAQP
ANC after treatment was stopped ([1]; 0.04 μg/b.i.d. s.c. for 5 days): decreased to normal counts by Day 13 | neutrophil regeneration during the treatment period, PT-100 versus G-CSF ([1]; 0.04 μg/b.i.d. subcutaneous injections, 5 consecutive days from Day 3): stimulated neutrophil regeneration to a similar level | effect on growth of early human hematopoietic progenitor cells [6]: not affected | CFU formation in the 2 week semi-solid assay [7]: stimulate CFU formation
